# Laboratory results from ChEMBL document CHEMBL3259634, “Novel benzopolycyclic amines with NMDA receptor antagonist activity” (Bioorg Med Chem, 2014).
# pIC50: −log10 of the molar value.
# Biological target: Glutamate NMDA receptor
# Test: Antagonist activity at NMDA receptor in primary culture of rat cerebellar granule neurons assessed as inhibition of NMDA-induced intracellular calcium level by fluorescence spectrophotometric analysis
# Type: cell-based
row,pIC50,Structure (SMILES)
1,5.71,NC12CC3CC(F)(CC(C1)c1ccccc13)C2
2,4.79,NC12CC3CC(O)(CC(C1)c1ccccc13)C2
3,5.64,CN(C)C12CC3CC(C1)c1ccccc1C(C3)C2
4,4.61,COC12CC3CC(N)(CC(C1)c1ccccc13)C2
5,4.15,CN(C)C12CC3CC(O)(CC(C1)c1ccccc13)C2
6,4.78,CN(C)C12CC3CC(F)(CC(C1)c1ccccc13)C2

row,Structure (SMILES),pIC50
1,NC12CC3CC(C1)c1ccccc1C(C3)C2,6.15
